Numbers after ± are expanded uncertainties.
Assay: xn = mol fraction of the nth substance listed
Settings: Liquid; for electrical conductivity: 100 kPa, Alternating current cell with electrodes, x2 = 0.2589; for viscosity / mass density: 101 kPa; for viscosity: Falling or rolling sphere viscometry; for mass density: Vibrating tube method

N#CCCCC#N [pentanedinitrile] + CCCC[N+]1(C)CCCC1.O=S(=O)([N-]S(=O)(=O)C(F)(F)F)C(F)(F)F showed an electrical conductivity (292.9 K) of 0.572 ± 0.014 S/m, a viscosity (293.15 K, x2 = 0) of 6.97 ± 0.42 mPa·s and a viscosity (293.15 K, x2 = 0.1003) of 9.92 ± 0.61 mPa·s. It also gave a viscosity (293.15 K, x2 = 0.1997) of 13.34 ± 0.82 mPa·s, a viscosity (293.15 K, x2 = 0.2999) of 17.57 ± 1.1 mPa·s and a viscosity (293.15 K, x2 = 0.4002) of 22.88 ± 1.4 mPa·s. For the same molecule, the viscosity (293.15 K, x2 = 0.5006) was 28.92 ± 1.8 mPa·s, the viscosity (293.15 K, x2 = 0.6003) was 38.47 ± 2.4 mPa·s and the viscosity (293.15 K, x2 = 0.6998) was 48.33 ± 2.9 mPa·s. For the same molecule, the viscosity (293.15 K, x2 = 0.8004) was 61.37 ± 3.7 mPa·s, the viscosity (293.15 K, x2 = 0.9002) was 78.19 ± 4.9 mPa·s and the mass density (293.15 K, x2 = 0) was 987 ± 2 kg/m3. For the same molecule, the mass density (293.15 K, x2 = 0.1003) was 1094.2 ± 3.1 kg/m3, the mass density (293.15 K, x2 = 0.1997) was 1167.5 ± 2.8 kg/m3 and the mass density (293.15 K, x2 = 0.2999) was 1222.5 ± 2.7 kg/m3. It also gave a mass density (293.15 K, x2 = 0.4002) of 1266.7 ± 2.7 kg/m3, a mass density (293.15 K, x2 = 0.5006) of 1300.5 ± 2.7 kg/m3 and a mass density (293.15 K, x2 = 0.6003) of 1327.5 ± 2.8 kg/m3. The mass density (293.15 K, x2 = 0.6998) was 1349.1 ± 2.8 kg/m3, the mass density (293.15 K, x2 = 0.8004) was 1368.5 ± 2.8 kg/m3 and the mass density (293.15 K, x2 = 0.9002) was 1385.4 ± 2.8 kg/m3. For the same molecule, the electrical conductivity (297.4 K) was 0.651 ± 0.016 S/m, the viscosity (298.15 K, x2 = 0) was 6.12 ± 0.37 mPa·s and the viscosity (298.15 K, x2 = 0.1003) was 8.55 ± 0.52 mPa·s. For the same molecule, the viscosity (298.15 K, x2 = 0.1997) was 11.42 ± 0.7 mPa·s, the viscosity (298.15 K, x2 = 0.2999) was 14.81 ± 0.9 mPa·s and the viscosity (298.15 K, x2 = 0.4002) was 19.17 ± 1.2 mPa·s. For the same molecule, the viscosity (298.15 K, x2 = 0.5006) was 23.95 ± 1.5 mPa·s, the viscosity (298.15 K, x2 = 0.6003) was 31.5 ± 1.9 mPa·s and the viscosity (298.15 K, x2 = 0.6998) was 39.56 ± 2.4 mPa·s. It also gave a viscosity (298.15 K, x2 = 0.8004) of 49.4 ± 3 mPa·s, a viscosity (298.15 K, x2 = 0.9002) of 62.15 ± 3.8 mPa·s and a mass density (298.15 K, x2 = 0) of 983.1 ± 2 kg/m3. For the same molecule, the mass density (298.15 K, x2 = 0.1003) was 1090.3 ± 3.1 kg/m3, the mass density (298.15 K, x2 = 0.1997) was 1163.3 ± 2.8 kg/m3 and the mass density (298.15 K, x2 = 0.2999) was 1218.1 ± 2.7 kg/m3. The mass density (298.15 K, x2 = 0.4002) was 1262.2 ± 2.7 kg/m3, the mass density (298.15 K, x2 = 0.5006) was 1296.1 ± 2.7 kg/m3 and the mass density (298.15 K, x2 = 0.6003) was 1323.1 ± 2.7 kg/m3. The mass density (298.15 K, x2 = 0.6998) was 1344.8 ± 2.8 kg/m3, the mass density (298.15 K, x2 = 0.8004) was 1364.3 ± 2.8 kg/m3 and the mass density (298.15 K, x2 = 0.9002) was 1380.9 ± 2.8 kg/m3. The viscosity (303.15 K, x2 = 0) was 5.39 ± 0.33 mPa·s, the viscosity (303.15 K, x2 = 0.1003) was 7.42 ± 0.45 mPa·s and the viscosity (303.15 K, x2 = 0.1997) was 9.83 ± 0.6 mPa·s. The viscosity (303.15 K, x2 = 0.2999) was 12.69 ± 0.77 mPa·s, the viscosity (303.15 K, x2 = 0.4002) was 16.22 ± 0.99 mPa·s and the viscosity (303.15 K, x2 = 0.5006) was 20.1 ± 1.2 mPa·s. It also gave a viscosity (303.15 K, x2 = 0.6003) of 26.13 ± 1.6 mPa·s, a viscosity (303.15 K, x2 = 0.6998) of 32.56 ± 2 mPa·s and a viscosity (303.15 K, x2 = 0.8004) of 40.38 ± 2.5 mPa·s. It also gave a viscosity (303.15 K, x2 = 0.9002) of 50.27 ± 3 mPa·s, a mass density (303.15 K, x2 = 0) of 979.1 ± 2 kg/m3 and a mass density (303.15 K, x2 = 0.1003) of 1086.2 ± 3.1 kg/m3. For the same molecule, the mass density (303.15 K, x2 = 0.1997) was 1159 ± 2.8 kg/m3, the mass density (303.15 K, x2 = 0.2999) was 1213.8 ± 2.7 kg/m3 and the mass density (303.15 K, x2 = 0.4002) was 1257.9 ± 2.7 kg/m3. For the same molecule, the mass density (303.15 K, x2 = 0.5006) was 1291.7 ± 2.7 kg/m3, the mass density (303.15 K, x2 = 0.6003) was 1318.6 ± 2.7 kg/m3 and the mass density (303.15 K, x2 = 0.6998) was 1340.3 ± 2.8 kg/m3. It also gave a mass density (303.15 K, x2 = 0.8004) of 1359.8 ± 2.8 kg/m3, a mass density (303.15 K, x2 = 0.9002) of 1376.4 ± 2.8 kg/m3 and an electrical conductivity (304.3 K) of 0.782 ± 0.018 S/m. The viscosity (313.15 K, x2 = 0) was 4.25 ± 0.26 mPa·s, the viscosity (313.15 K, x2 = 0.1003) was 5.78 ± 0.35 mPa·s and the viscosity (313.15 K, x2 = 0.1997) was 7.46 ± 0.45 mPa·s. It also gave a viscosity (313.15 K, x2 = 0.2999) of 9.52 ± 0.58 mPa·s, a viscosity (313.15 K, x2 = 0.4002) of 11.97 ± 0.73 mPa·s and a viscosity (313.15 K, x2 = 0.5006) of 14.66 ± 0.89 mPa·s. It also gave a viscosity (313.15 K, x2 = 0.6003) of 18.67 ± 1.1 mPa·s, a viscosity (313.15 K, x2 = 0.6998) of 22.97 ± 1.4 mPa·s and a viscosity (313.15 K, x2 = 0.8004) of 28.01 ± 1.7 mPa·s. For the same molecule, the viscosity (313.15 K, x2 = 0.9002) was 34.37 ± 2.1 mPa·s, the mass density (313.15 K, x2 = 0) was 971.2 ± 2 kg/m3 and the mass density (313.15 K, x2 = 0.1003) was 1077.9 ± 3.1 kg/m3. The mass density (313.15 K, x2 = 0.1997) was 1150.5 ± 2.8 kg/m3, the mass density (313.15 K, x2 = 0.2999) was 1205.1 ± 2.7 kg/m3 and the mass density (313.15 K, x2 = 0.4002) was 1249 ± 2.7 kg/m3. The mass density (313.15 K, x2 = 0.5006) was 1282.8 ± 2.7 kg/m3, the mass density (313.15 K, x2 = 0.6003) was 1309.7 ± 2.7 kg/m3 and the mass density (313.15 K, x2 = 0.6998) was 1331.3 ± 2.7 kg/m3. For the same molecule, the mass density (313.15 K, x2 = 0.8004) was 1350.8 ± 2.8 kg/m3, the mass density (313.15 K, x2 = 0.9002) was 1367.2 ± 2.8 kg/m3 and the electrical conductivity (314.5 K) was 1 ± 0.022 S/m. The viscosity (323.15 K, x2 = 0) was 3.47 ± 0.21 mPa·s, the viscosity (323.15 K, x2 = 0.1003) was 4.6 ± 0.28 mPa·s and the viscosity (323.15 K, x2 = 0.1997) was 5.84 ± 0.36 mPa·s. The viscosity (323.15 K, x2 = 0.2999) was 7.39 ± 0.45 mPa·s, the viscosity (323.15 K, x2 = 0.4002) was 9.16 ± 0.56 mPa·s and the viscosity (323.15 K, x2 = 0.5006) was 11.11 ± 0.68 mPa·s. The viscosity (323.15 K, x2 = 0.6003) was 13.88 ± 0.85 mPa·s, the viscosity (323.15 K, x2 = 0.6998) was 16.93 ± 1 mPa·s and the viscosity (323.15 K, x2 = 0.8004) was 18.72 ± 1.9 mPa·s. The viscosity (323.15 K, x2 = 0.9002) was 24.65 ± 1.5 mPa·s, the mass density (323.15 K, x2 = 0) was 963.4 ± 1.9 kg/m3 and the mass density (323.15 K, x2 = 0.1003) was 1069.7 ± 3 kg/m3. It also gave a mass density (323.15 K, x2 = 0.1997) of 1142 ± 2.8 kg/m3, a mass density (323.15 K, x2 = 0.2999) of 1196.5 ± 2.7 kg/m3 and a mass density (323.15 K, x2 = 0.4002) of 1240.3 ± 2.7 kg/m3. The mass density (323.15 K, x2 = 0.5006) was 1274 ± 2.7 kg/m3, the mass density (323.15 K, x2 = 0.6003) was 1300.9 ± 2.7 kg/m3 and the mass density (323.15 K, x2 = 0.6998) was 1322.5 ± 2.7 kg/m3. The mass density (323.15 K, x2 = 0.8004) was 1342 ± 2.8 kg/m3, the mass density (323.15 K, x2 = 0.9002) was 1358.2 ± 2.8 kg/m3 and the electrical conductivity (323.2 K) was 1.21 ± 0.026 S/m. It also gave a viscosity (333.15 K, x2 = 0) of 2.88 ± 0.17 mPa·s, a viscosity (333.15 K, x2 = 0.1003) of 3.72 ± 0.23 mPa·s and a viscosity (333.15 K, x2 = 0.1997) of 4.71 ± 0.29 mPa·s. For the same molecule, the viscosity (333.15 K, x2 = 0.2999) was 5.85 ± 0.36 mPa·s, the viscosity (333.15 K, x2 = 0.4002) was 7.27 ± 0.44 mPa·s and the viscosity (333.15 K, x2 = 0.5006) was 8.67 ± 0.53 mPa·s. For the same molecule, the viscosity (333.15 K, x2 = 0.6003) was 10.69 ± 0.65 mPa·s, the viscosity (333.15 K, x2 = 0.6998) was 13.01 ± 0.79 mPa·s and the viscosity (333.15 K, x2 = 0.8004) was 14.2 ± 1.4 mPa·s. It also gave a viscosity (333.15 K, x2 = 0.9002) of 18.39 ± 1.1 mPa·s, a mass density (333.15 K, x2 = 0) of 955.6 ± 1.9 kg/m3 and a mass density (333.15 K, x2 = 0.1003) of 1061.5 ± 3 kg/m3. For the same molecule, the mass density (333.15 K, x2 = 0.1997) was 1133.7 ± 2.7 kg/m3, the mass density (333.15 K, x2 = 0.2999) was 1188 ± 2.7 kg/m3 and the mass density (333.15 K, x2 = 0.4002) was 1231.7 ± 2.7 kg/m3. It also gave a mass density (333.15 K, x2 = 0.5006) of 1265.2 ± 2.7 kg/m3, a mass density (333.15 K, x2 = 0.6003) of 1291.9 ± 2.7 kg/m3 and a mass density (333.15 K, x2 = 0.6998) of 1313.8 ± 2.7 kg/m3. The mass density (333.15 K, x2 = 0.8004) was 1333 ± 2.7 kg/m3 and the electrical conductivity (336 K) was 1.55 ± 0.032 S/m.
